Test results as given in ChEMBL document CHEMBL1153520, “A multivalent approach to the design and discovery of orally efficacious 5-HT4 receptor agonists” (J Med Chem, 2009).

Key:
[1] = target: T1, 5-hydroxytryptamine receptor 4 (Homo sapiens, UniProt Q13639); assay: Agonist activity at human 5HT4C receptor expressed in HEK293 cells assessed as accumulation of cAMP by flash plate adenylyl cyclase activation assay; format: functional, cell-based
[2] = target: T1, 5-hydroxytryptamine receptor 4; assay: Displacement of [H]GR-113808 from human 5HT4C receptor expressed in HEK293 cells by liquid scintillation counting; format: cell-based
Homo sapiens = species on record: Homo sapiens; assay: Selectivity ratio of Ki for human 5HT3A receptor to Ki for human 5HT4C receptor
[3] = Permeability across human Caco-2 cells assessed as permeability coefficient; format: ADME, cell-based; settings: read-out: permeability
hERG (KCNH2) = hERG (KCNH2) (Homo sapiens, UniProt Q12809); assay: Inhibition of human ERG potassium channel expressed in CHO-K1 cells at 3 uM by whole cell voltage clamp assay; format: cell-based; settings: CHO-K1 cells expressing human ERG potassium channel
hERG (KCNH2), sequence (Q12809 whole entry): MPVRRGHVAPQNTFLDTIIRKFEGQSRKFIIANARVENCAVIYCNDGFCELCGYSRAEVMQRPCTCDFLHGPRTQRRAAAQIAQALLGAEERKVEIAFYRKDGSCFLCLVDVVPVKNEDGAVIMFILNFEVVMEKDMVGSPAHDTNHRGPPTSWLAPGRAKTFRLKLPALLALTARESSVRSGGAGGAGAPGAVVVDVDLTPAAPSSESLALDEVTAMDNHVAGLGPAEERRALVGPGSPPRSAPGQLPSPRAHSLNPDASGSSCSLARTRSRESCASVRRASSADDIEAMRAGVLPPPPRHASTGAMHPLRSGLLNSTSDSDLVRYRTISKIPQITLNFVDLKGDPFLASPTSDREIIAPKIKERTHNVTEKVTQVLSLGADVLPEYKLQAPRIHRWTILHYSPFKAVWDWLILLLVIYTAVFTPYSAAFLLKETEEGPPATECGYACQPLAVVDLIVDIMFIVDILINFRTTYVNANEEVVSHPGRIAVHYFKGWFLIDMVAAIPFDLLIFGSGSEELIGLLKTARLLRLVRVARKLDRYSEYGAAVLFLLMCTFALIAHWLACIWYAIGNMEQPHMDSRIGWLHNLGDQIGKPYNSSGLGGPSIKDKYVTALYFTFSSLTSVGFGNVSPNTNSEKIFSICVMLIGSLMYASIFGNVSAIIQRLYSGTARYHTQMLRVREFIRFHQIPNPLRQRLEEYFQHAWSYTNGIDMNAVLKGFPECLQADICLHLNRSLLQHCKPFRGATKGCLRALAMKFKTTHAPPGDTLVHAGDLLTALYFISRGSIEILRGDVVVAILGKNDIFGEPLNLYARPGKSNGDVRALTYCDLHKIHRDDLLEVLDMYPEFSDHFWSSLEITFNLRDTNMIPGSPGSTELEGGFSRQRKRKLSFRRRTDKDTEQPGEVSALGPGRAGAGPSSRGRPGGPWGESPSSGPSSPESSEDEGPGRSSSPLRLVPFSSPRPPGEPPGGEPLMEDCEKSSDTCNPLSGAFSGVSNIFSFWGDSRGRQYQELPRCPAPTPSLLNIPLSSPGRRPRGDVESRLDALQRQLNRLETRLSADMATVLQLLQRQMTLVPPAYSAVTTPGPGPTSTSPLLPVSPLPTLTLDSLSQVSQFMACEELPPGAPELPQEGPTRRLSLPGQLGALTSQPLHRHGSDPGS

[4] = target: T1, 5-hydroxytryptamine receptor 4; assay: Intrinsic activity at human 5HT4C receptor expressed in HEK293 cells assessed as accumulation of cAMP by flash plate adenylyl cyclase activation assay relative to serotonin; format: functional, cell-based

T1 sequence (Q13639 whole entry): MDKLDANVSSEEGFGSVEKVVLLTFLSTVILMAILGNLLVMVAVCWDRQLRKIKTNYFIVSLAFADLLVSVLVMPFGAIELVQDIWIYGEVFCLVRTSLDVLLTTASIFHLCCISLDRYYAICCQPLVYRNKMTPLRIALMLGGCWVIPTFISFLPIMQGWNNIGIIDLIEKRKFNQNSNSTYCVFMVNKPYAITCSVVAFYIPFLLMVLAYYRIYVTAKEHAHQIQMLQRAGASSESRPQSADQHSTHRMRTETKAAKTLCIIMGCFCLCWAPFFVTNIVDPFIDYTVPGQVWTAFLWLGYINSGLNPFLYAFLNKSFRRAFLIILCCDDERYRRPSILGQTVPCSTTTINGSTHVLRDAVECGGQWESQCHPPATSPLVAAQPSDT

EC50 [1] | Ki [2] | Ratio Ki (Homo sapiens) | Intrinsic activity [4] | SMILES | Papp [3] | inhibition at 3 µM (hERG (KCNH2))
0.631 nM | 5.01 nM | 6500 | 96% | CC(C)n1c(=O)c(C(=O)N[C@H]2C[C@H]3CC[C@@H](C2)N3CCCCCCCN(C)CCCN(C)S(C)(=O)=O)cc2ccccc21 | 3 ×10⁻⁶ cm/s | 12%
398 nM | 6310 nM | 0.15 | 93% | COc1cc(N)c(Cl)cc1C(=O)NC1CCN(CCCCCS(=O)(=O)O)CC1 | – | –
7.94 nM | 126 nM | 1 | > 100% | CC(C)n1c(=O)n(C(=O)NCCN2CCNCC2)c2ccccc21 | – | –
1580 nM | 25100 nM | 1.5 | > 100% | COc1cc(N)c(Cl)cc1C(=O)NC1CCN(CCS(=O)(=O)O)CC1 | – | –
39.8 nM | 15.8 nM | 330 | > 100% | COc1cc(N)c(Cl)cc1C(=O)NC1CCN(CCCCCCCCN2CCN(S(C)(=O)=O)CC2)CC1 | – | –
2.51 nM | 39.8 nM | 1300 | > 100% | CCOC(=O)N1CCN(CCCN2[C@@H]3CC[C@H]2C[C@@H](NC(=O)c2cc4ccccc4n(C(C)C)c2=O)C3)CC1 | 31 ×10⁻⁶ cm/s | 75%
1.26 nM | 1.58 nM | 12000 | > 100% | COc1cc(N)c(Cl)cc1C(=O)NC1CCN(CCCCCN(C)CCc2c[nH]c3ccccc23)CC1 | – | –
100 nM | 158 nM | 0.2 | 57% | COc1cc(N)c(Cl)cc1C(=O)N[C@H]1C[C@H]2CC[C@@H](C1)N2 | – | –
20 nM | 63.1 nM | 230 | > 100% | CC(C)n1c(=O)c(C(=O)N[C@H]2C[C@H]3CC[C@@H](C2)N3CCCCCCCCS(=O)(=O)O)cc2ccccc21 | – | –
20 nM | 126 nM | 21 | 97% | COc1cc(N)c(Cl)cc1C(=O)NC1CCN(CCN2CCN(S(C)(=O)=O)CC2)CC1 | – | –
6.31 nM | 63.1 nM | 450 | > 100% | CC(C)n1c(=O)c(C(=O)N[C@H]2C[C@H]3CC[C@@H](C2)N3CCN2CCN(S(C)(=O)=O)CC2)cc2ccccc21 | – | –
5.01 nM | 20 nM | 120 | > 100% | COc1cc(N)c(Cl)cc1C(=O)NC1CCN(CCCCCN2C(=O)c3ccccc3C2=O)CC1 | – | –
3.16 nM | 3.16 nM | 2000 | > 100% | COc1cc(N)c(Cl)cc1C(=O)NC1CCN(CCCCCCCCN2CCCCC2)CC1 | – | –
1 nM | 5.01 nM | 8100 | > 100% | CC(C)n1c(=O)c(C(=O)N[C@H]2C[C@H]3CC[C@@H](C2)N3CCCCCN2CCCCC2)cc2ccccc21 | – | –
398 nM | 1580 nM | 0.095 | > 100% | COc1cc(N)c(Cl)cc1C(=O)NC1CCNCC1 | – | –

More lines, now with the values behind:

SMILES | EC50 [1] | Ki [2] | Ratio Ki (Homo sapiens) | Intrinsic activity [4] | Papp [3] | inhibition at 3 µM (hERG (KCNH2))
CC(C)n1c(=O)c(C(=O)N[C@H]2C[C@H]3CC[C@@H](C2)N3CC(O)CN2CCN(S(C)(=O)=O)CC2)cc2ccccc21 (mixture of isomers) | 0.794 nM | 20 nM | 2400 | > 100% | 19 ×10⁻⁶ cm/s | 10%
CC(C)n1c(=O)c(C(=O)N[C@H]2C[C@H]3CC[C@@H](C2)N3CCCCCCCN2CCC[C@@H]2C(N)=O)cc2ccccc21 | 0.398 nM | 2 nM | 20000 | > 100% | 9 ×10⁻⁶ cm/s | 7%
CC(C)n1c(=O)c(C(=O)N[C@H]2C[C@H]3CC[C@@H](C2)N3CCCN2CCCCC2)cc2ccccc21 | 2 nM | 6.31 nM | 9200 | > 100% | 24 ×10⁻⁶ cm/s | 39%
CC(C)n1c(=O)c(C(=O)N[C@H]2C[C@H]3CC[C@@H](C2)N3CCCCCCCN2CCCCC2)cc2ccccc21 | 0.794 nM | 2.51 nM | 10000 | 90% | 23 ×10⁻⁶ cm/s | 9%
CC(C)n1c(=O)c(C(=O)N[C@H]2C[C@H]3CC[C@@H](C2)N3CCCN2CCN(c3ccccc3)CC2)cc2ccccc21 | 0.794 nM | 7.94 nM | 1000 | > 100% | 22 ×10⁻⁶ cm/s | 90%
CC(C)n1c(=O)c(C(=O)N[C@H]2C[C@H]3CC[C@@H](C2)N3CCCCCCCN2CCC(CNS(C)(=O)=O)CC2)cc2ccccc21 | 0.631 nM | 2.51 nM | 3100 | 98% | 2 ×10⁻⁶ cm/s | 5%
CC(C)n1c(=O)c(C(=O)N[C@H]2C[C@H]3CC[C@@H](C2)N3CCCN2CCC(CNS(C)(=O)=O)CC2)cc2ccccc21 | 1 nM | 5.01 nM | 11000 | > 100% | 3 ×10⁻⁶ cm/s | 14%
CC(C)n1c(=O)c(C(=O)N[C@H]2C[C@H]3CC[C@@H](C2)N3CCCN2CCC[C@@H]2C(N)=O)cc2ccccc21 | 3.98 nM | 50.1 nM | 1500 | > 100% | 2 ×10⁻⁶ cm/s | 12%
CC(C)n1c(=O)n(C(=O)N[C@H]2C[C@H]3CC[C@@H](C2)N3)c2ccccc21 | 15.8 nM | 316 nM | 0.013 | > 100% | – | –
CCOC(=O)N1CCN(CCCCCCCN2[C@@H]3CC[C@H]2C[C@@H](NC(=O)c2cc4ccccc4n(C(C)C)c2=O)C3)CC1 | 3.16 nM | 7.94 nM | 810 | > 100% | 14 ×10⁻⁶ cm/s | 87%
CC(C)n1c(=O)c(C(=O)NC2CCNCC2)cc2ccccc21 | 158 nM | 3160 nM | 0.14 | > 100% | – | –
CC(C)n1c(=O)c(C(=O)N[C@H]2C[C@H]3CC[C@@H](C2)N3CCCCCCCN2CCOCC2)cc2ccccc21 | 2.51 nM | 2 nM | 1600 | > 100% | 28 ×10⁻⁶ cm/s | 34%
CC(C)n1c(=O)c(C(=O)N[C@H]2C[C@H]3CC[C@@H](C2)N3CCCN(C)CCCN(C)S(C)(=O)=O)cc2ccccc21 | 10 nM | 200 nM | 210 | > 100% | 4 ×10⁻⁶ cm/s | 6%
CC(C)n1c(=O)c(C(=O)N[C@H]2C[C@H]3CC[C@@H](C2)N3CCCN2CCOCC2)cc2ccccc21 | 2.51 nM | 39.8 nM | 750 | > 100% | 22 ×10⁻⁶ cm/s | 80%
CC(C)n1c(=O)c(C(=O)N[C@H]2C[C@H]3CC[C@@H](C2)N3)cc2ccccc21 | 12.6 nM | 251 nM | 0.85 | > 100% | – | –
CC(C)n1c(=O)c(C(=O)N[C@H]2C[C@H]3CC[C@@H](C2)N3CCN2CCCCC2)cc2ccccc21 | 10 nM | 79.4 nM | 720 | > 100% | – | –
CCN1[C@@H]2CC[C@H]1C[C@@H](NC(=O)c1cc3ccccc3n(C(C)C)c1=O)C2 | 31.6 nM | 126 nM | 19 | 96% | – | –
CCCCCCCCN1[C@@H]2CC[C@H]1C[C@@H](NC(=O)c1cc3ccccc3n(C(C)C)c1=O)C2 | 39.8 nM | 63.1 nM | 150 | > 100% | – | –
